Experimental data: publication PMC10707992 (2023)

Test system: FAM-Apt (DNA, aptamer) ATCACGTGTTGTCTCTCTGTGTCTCGTG
Assay: FRET strand-displacement assay (fluorescence recovery)
Conditions: 20 mM Mg-acetate, 100 mM Na-acetate; Tris-acetate pH 8.5, 25 °C; 3'-RTQ1 cDNA CAGAGAGAC not displaced; tested at 1 µM

Row | binding | Structure (SMILES)
1 | no | C[C@H]1CCCC(=O)CCC/C=C/c2cc(O)cc(O)c2C(=O)O1
2 | no | C[C@@H]1Cc2c(Cl)cc(C(=O)N[C@@H](Cc3ccccc3)C(=O)O)c(O)c2C(=O)O1
